Where two headings read alike, the source gives them in different places.
Key:
[1] = tested on: human glioblastoma astrocytoma (U373) cells
Procedure: (§1) The human glioblastoma astrocytoma (U373) cell line was cultured in MEM medium supplemented with 10% FBS, 1% NEAA (non-essential amino-acids) and 1% penicillin/streptomycin. […] The human retinal epithelial cells (RPE-1, non-cancerous cells immortalized with hTERT) were cultured in DMEM-F12 medium supplemented with 10% FBS and 1% penicillin/streptomycin. All cell lines were obtained from the American Type Culture Collection (ATCC) and cultured at 37° C. and 5% CO2. Before an experiment, the cells were passaged three times.
(§2) The cytotoxicity of the compounds was assessed by measuring cell viability using a fluorometric resazurin assay. The cultivated cells were seeded in triplicates in 96 well plates with a density of 4000 cells per well in 100 μL of media. After 24 h, the medium was removed and the cells were treated with increasing concentrations of the compound diluted in cell media achieving a total volume of 200 μL. The cells were incubated with the compound for 4 h. After this time, the media was removed and replaced with 200 μL of fresh medium. For the phototoxicity studies, the cells were exposed to light with an Atlas Photonics LUMOS BIO irradiator. Each well was constantly illuminated with either a 480 nm or 540 nm irradiation. During this time, the temperature was maintained constantly at 37° C. The cells were grown in the incubator for additional 44 h. For the determination of the dark cytotoxicity, the cells were not irradiated and after the medium exchange directly incubated for 44 h. After this time, the medium was replaced with fresh medium containing resazurin with a final concentration of 0.2 mg/mL. After 4 h incubation, the amount of the fluorescent product resorufin was determined upon excitation at 540 nm and measurement its emission at 590 nm using a SpectraMax M2 Microplate Reader (Molecular Devices).
(§3) The obtained data was analyzed with the GraphPad Prism software.

HeLa MCTS [2] = assay: 3D multicellular tumor spheroids (MCTS) growth inhibition assay; assay type: cell-based, human; details: 20 μM, 1P (500 nm, 10 J/cm^2) or 2P (800 nm, 10 J/cm^2) irradiation on day 3
Procedure: autoclave. The hot emulsion was transferred into wells (50 μL per well) of a 96 cell culture well plate. The plates were exposed for 3 h to UV irradiation to ensure the sterility and allow the agarose solution to cool down. After this time, the agarose was overlayed with a HeLa cell suspension at a density of 3000 cells per well in 150 μL of media. The MCTS were cultivated and maintained at 37° C. in a cell culture incubator at 37° C. with 5% CO2 atmosphere. The culture media was replaced every two days. Within two-three days MCTs were formed from the cell suspension. The formation as well as integrity, diameter and volume of the MCTs was monitored by an Axio Observer Z1 (Carl Zeiss) phase contrast microscope. The volume was calculated using the following formula: V=4/3πr^3. The luminescence images along the z-axis were captured by a one-(λex=458 nm, λem=600-750 nm) or two-photon (λex=800 nm, λem=600-750 nm) excitation in the z-stack mode with a an LSM 880 (Carl Zeiss) laser scanning confocal microscope equipped with Argon and a Coherent Chameleon 2-Photon laser and a GaAsP detector.
MCTS were treated with the corresponding compounds (20 μM 1-7, 20 μM tetraphenylporphyrin H2TPP, 10 μM cisplatin, 30 μM cisplatin, 2% DMSO, v %) by replacing 50% of the media with drug supplemented media in the dark for three days. After this time, the MCTS were exposed to a two-photon irradiation (800 nm, 10 J/cm^2) with a section interval of 5 μm using a LSM 880 (Carl Zeiss) laser scanning confocal microscope equipped with a Coherent Chameleon 2-Photon laser. The cell culture media was replaced every two days. The integrity and diameter of the MCTs was monitored with an Axio Observer Z1 (Carl Zeiss) phase contrast microscope every 24 h.

[3] = tested on: SW620/AD300 (doxorubicin-selected P-gp-overexpressing human colon cancer cell) tumour-bearing nude mice; assay: In vivo PDT in tumour-bearing nude mice
Procedure: 6 weeks age nu/nu female mice were purchased from Charles River. Compound 7 was dissolved into physiological saline at first. Tumor xenograft: 6×10^6 SW620/AD300 cells were subcutaneously (s.c.) injected in the nude mice, the cells were suspension in 150 μL Matrigel (Corning) and saline (1:1, v/v). After a week, the tumor volumes of the mice reached approximately 80 mm^3.
30 SW620/AD300 nude tumour-bearing nude mice were randomly separated into 6 groups and five mice for each group.
Group 1: injected 7 (2 mg/Kg 50 μL) intravenously and irradiate under 800 nm laser (50 mW, 1 kHz, pulse width 35 fs, 5 s/mm) 1 h after injection;
Group 2: injected 7 (2 mg/Kg 50 μL) intravenously and irradiate under 500 nm light (10 mW/cm^2, 60 min);
Group 3: injected by physiological saline (50 μL) and treated with 800 nm laser (50 mW, 1 kHz, pulse width 35 fs, 5 s/mm) 1 h after injection;
Group 4: injected by physiological saline (50 μL) and treated with 500 nm light (10 mW/cm^2, 60 min);
Group 5: intravenous injected 7 (2 mg/Kg 50 μL);
Group 6: injected 50 μL physiological saline.
The mice were anesthetized by the injection of 4% chloral hydrate aqueous solution (0.2 mL/20 g) before treatment. The tumour volume and body weight were measured and record for each two days. Tumor volume was calculated by the following formula
After the treatment, the mice were euthanized. The tumour was collected and fixated by 4% paraformaldehyde, and then obtained as paraffin-embedded samples and stained with hematoxylin and eosin (H&E). A Carl Zeiss Axio Imager Z2 microscope was used to observe the tissue structure and cell state of the sections.

[4] = tested on: human glioblastoma astrocytoma (U373) cells; assay: (Photo-)cytotoxicity on 2D cell monolayers, resazurin assay, U373; details: for IC50: compounds 1-3 as chloride salts
Procedure: as §1, §2, §3

HeLa MCTS [5] = assay: (Photo-)cytotoxicity on 3D multicellular tumor spheroids (ATP, CellTiter-Glo 3D); assay type: cell-based, human
Outline: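 HeLa spheroids grown on agarose from 3000 cells/well over 2–3 days, then treated with compound (2% DMSO) for 12 h. Spheroids kept dark or irradiated at 500 nm one-photon or 800 nm two-photon (10 J/cm^2 each), then incubated 48 h more. Viability read as ATP by luminescence.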

[6] = tested on: non-cancerous retinal pigment epithelium (RPE-1) cells; assay: (Photo-)cytotoxicity on 2D cell monolayers, resazurin assay, RPE-1;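 note: cells exposed to compound 4 h, medium exchanged, then irradiated or kept dark, 44 h further growth, viability by resorufin fluorescence (ex 540 nm, em 590 nm)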

[Ru(bipy)2((E,E′)-4,4′-Bis[p-(N,N-methoxy)styryl]-2,2′-bipyridine)][PF6]2 [Compound 7]
IC50 [1]: 13.5 ± 1.6 µM | volume of the MCTS after light irradiation (HeLa MCTS [2]): strongest phototoxic effect | behaviour of treated animals ([3]; 2 mg/Kg intravenously): behave normally, without signs of pain, stress or discomfort | tumour volume, PDT treated ([3]; 2 mg/Kg intravenously plus 2P irradiation at 800 nm or 1P irradiation at 500 nm, 15 days): drastically shrank until they were nearly eradicated | tumour volume, compound only ([3]; 2 mg/Kg intravenously, no irradiation): did not show any significant effect | PI (480 nm) ([4]; U373, dark vs 480 nm (10 min, 3.1 J/cm^2)): >9.5 | PI (540 nm) ([4]; U373, dark vs 540 nm (40 min, 9.5 J/cm^2)): >7.4 | IC50 ([4]; read-out: IC50 480 nm (10 min, 3.1 J/cm^2), U373, irradiation 480 nm (10 min, 3.1 J/cm^2)): 10.5 ± 1.7 µM | IC50 ([4]; read-out: IC50 dark, U373, dark, 4 h incubation): > 100 µM | IC50 (HeLa MCTS [5]; 1-Photon irradiation (500 nm, 10 J/cm^2), read-out: IC50 1-Photon irradiation (500 nm, 10 J/cm^2)): 6.8 ± 0.2 µM | phototoxicity in HeLa MCTS (HeLa MCTS [5]; 1 Photon and 2 Photons irradiation, compared with compounds 4-6, 8, 10): much higher phototoxicity | IC50 (HeLa MCTS [5]; 2-Photon irradiation (800 nm, 10 J/cm^2, section interval of 5 μm), read-out: IC50 2-Photon irradiation (800 nm, 10 J/cm^2)): 1.4 ± 0.2 µM | PI (1-Photon) (HeLa MCTS [5]; dark vs 1-Photon irradiation (500 nm, 10 J/cm^2)): >44.1 | PI (2-Photon) (HeLa MCTS [5]; dark vs 2-Photon irradiation (800 nm, 10 J/cm^2)): >214.3 | IC50 (HeLa MCTS [5]; dark, 12 h incubation, read-out: IC50 dark): > 300 µM | PI (480 nm) ([6]; RPE-1, dark vs 480 nm (10 min, 3.1 J/cm^2)): >32.3 | PI (540 nm) ([6]; RPE-1, dark vs 540 nm (40 min, 9.5 J/cm^2)): >11.9

Source: patent publication US20220409727A1, “Metal Complexes Bearing Bisstyryl-Bipyridine Ligand and Their Use as Photosensitizer Agent in One and Two-Photon Photodynamic Therapy” (Paris Sciences et Lettres, priority 2019, published 2022)
